Results from patent publication US11396517B1, “Exo-aza spiro inhibitors of menin-MLL interaction” (Janssen Pharmaceutica NV, priority 2017, dated 2022).

Target: T1, menin (Homo sapiens, UniProt O00255, T541A)
T1 construct: Menin (a.a. 1-610-6×his tag)
T1 sequence (O00255 with tags, fused parts or gaps T541A): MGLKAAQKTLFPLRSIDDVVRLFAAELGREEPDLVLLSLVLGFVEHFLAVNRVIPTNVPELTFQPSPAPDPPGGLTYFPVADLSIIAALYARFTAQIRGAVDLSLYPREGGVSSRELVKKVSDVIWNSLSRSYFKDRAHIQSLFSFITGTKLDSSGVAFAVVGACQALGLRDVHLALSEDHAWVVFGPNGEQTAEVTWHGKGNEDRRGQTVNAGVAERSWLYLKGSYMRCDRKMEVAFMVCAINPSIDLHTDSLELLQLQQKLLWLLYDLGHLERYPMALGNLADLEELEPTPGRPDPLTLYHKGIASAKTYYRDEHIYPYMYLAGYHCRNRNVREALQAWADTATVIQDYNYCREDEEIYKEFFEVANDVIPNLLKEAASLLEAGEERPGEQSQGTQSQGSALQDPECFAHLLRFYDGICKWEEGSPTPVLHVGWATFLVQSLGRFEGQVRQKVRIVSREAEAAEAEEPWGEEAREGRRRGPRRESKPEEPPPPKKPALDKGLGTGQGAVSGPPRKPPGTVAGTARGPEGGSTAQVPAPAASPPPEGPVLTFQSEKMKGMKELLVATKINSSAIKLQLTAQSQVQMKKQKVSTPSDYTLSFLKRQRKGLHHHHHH
Assay: Menin/MLL homogenous time-resolved fluorescence (HTRF) assay
Type: binding
Details: location 2; read-out: (2) location 2 Menin HTRF assay (IC50 (nM))
Experimental: 2) Menin/MLL Homogenous Time-Resolved Fluorescence (HTRF) Assay
To an untreated, white 384-well microtiter plate was added 40 nL 200× test compound in DMSO and 4 μL 2× terbium chelate-labeled menin (vide infra for preparation) in assay buffer (40 mM Tris HCl, pH 7.5, 50 mM NaCl, 1 mM DTT and 0.05% Pluronic F-127). After incubation of test compound and terbium chelate-labeled menin for 5 min at ambient temperature, 4 μL 2× FITC-MBM1 peptide (FITC-β-alanine-[…]-NH2 (SEQ ID NO: 23)) in assay buffer was added, the microtiter plate centrifuged at 1000 rpm for 1 min and the assay mixtures incubated for 15 min at ambient temperature. The relative amount of menin.FITC-MBM1 complex present in an assay mixture is determined by measuring the homogenous time-resolved fluorescence (HTRF) of the terbium/FITC donor/acceptor fluorphore pair using a BMG Pherastar plate reader (ex. 337 nm/terbium em. 490 nm/FITC em. 520 nm) at ambient temperature. The degree of fluorescence resonance energy transfer (the HTRF value) is expressed as the ratio of the fluorescence emission intensities of the FITC and terbium fluorophores (Fern 520 nm/Fem 490 nm). The final concentrations of reagents in the binding assay are […] terbium chelate-labeled menin (location 2), 75 nM FITC-MBM1 peptide and 0.5% DMSO in assay buffer. Dose-response titrations of test compounds are conducted using an 11 point, three-fold serial dilution scheme, starting typically at 25 μM (location 1) or starting typically at 10 μM (location 2).
Compound potencies were determined by first calculating % inhibition at each compound concentration according to equation 1: % inhibition=((HC−LC)−(HTRF^compound−LC))/(HC−LC))*100 (Eqn 1)
Where LC and HC are the HTRF values of the assay in the presence or absence of a saturating concentration of a compound that competes with FITC-MBM1 for binding to menin, and HTRF^compound is the measured HTRF value in the presence of the test compound. FTC and LC HTRF values represent an average of at least 16 replicates per plate.
Where Bottom and Top are the lower and upper asymptotes of the dose-response curve, respectively, IC50 is the concentration of compound that yields 50% inhibition of signal and h is the Hill coefficient.
Preparation of Terbium cryptate labeling of Menin: Menin (a.a. 1-610-6×his tag (“6×his” disclosed as SEQ ID NO: 3)) was labeled with terbium cryptate as follows. 2 mg of Menin was buffer exchanged into 1× phosphate buffered saline. 16 uM Menin was incubated with 4-fold molar excess NHS-terbium cryptate (Cisbio Bioassays, Bedford, Mass.) for 2 hours at room temperature. The labeled protein was purified away from free label by running the reaction over a Superdex 200 Increase 10/300 GL column at 0.75 ml/min. Peak fractions were collected, aliquoted and frozen at −80° C.

| Compound | IC50 [nM] |
| --- | --- |
| FC(F)(F)Cc1cc2c(N3CCC4(CCC(Nc5ccccc5)C4)C3)ncnc2s1 (single isomer, unassigned) [Compound 32] | 123 |
| FC(F)(F)Cc1cc2c(N3CCC4(CCC(Nc5ccccc5)C4)C3)ncnc2s1 (single isomer, unassigned) [Compound 34] | 338 |
| O=C(NC1CC2(CCN(c3ncnc4sc(CC(F)(F)F)cc34)C2)C1)c1ccccc1 (single isomer, unassigned) [Compound 37] | 8340 |
| CNc1nc(N2CCC3(CC(NCc4ccccc4)C3)C2)c2cc(CC(F)(F)F)sc2n1 (single isomer, unassigned) [Compound 62] | 115 |
| CNC(=O)c1ccc(NC2CC3(CCN(c4nc(NC)nc5sc(CC(F)(F)F)cc45)C3)C2)cc1 (single isomer, unassigned) [Compound 65] | 133 |
| CNC(=O)c1ccc(NC2CC3(CCN(c4ncnc5sc(CC(F)(F)F)cc45)C3)C2)c(Cl)c1 (single isomer, unassigned) [Compound 68] | 39.6 |
| CNC(=O)c1ccc(NC2CC3(CCN(c4ncnc5sc(CC(F)(F)F)cc45)C3)C2)nc1 (single isomer, unassigned) [Compound 71] | 433 |
| CN(C)CCNC(=O)c1ccc(NC2CC3(CCN(c4ncnc5sc(CC(F)(F)F)cc45)C3)C2)cc1 (single isomer, unassigned) [Compound 74] | 60.4 |
| Cn1c(=O)[nH]c2cc(NC3CC4(CCN(c5ncnc6sc(CC(F)(F)F)cc56)C4)C3)ccc21 (single isomer, unassigned) [Compound 91] | 166 |
| CNC(=O)c1ccc(NC2CCC3(C2)CN(c2ncnc4sc(CC(F)(F)F)cc24)C3)cc1 (single isomer, unassigned) [Compound 97] | 213 |
| O=C1CN(C(=O)c2ccc(NC3CC4(CCN(c5ncnc6sc(CC(F)(F)F)cc56)C4)C3)cc2)CCN1 (single isomer, unassigned) [Compound 105] | 3040 |
| Cc1nc(N2CC3(CC[C@H](NCc4cccc(-c5cc[nH]n5)c4)C3)C2)c2cc(CC(F)(F)F)sc2n1 (single isomer, unassigned) [Compound 118] | 256 |
| FC(F)(F)Cc1cc2c(N3CCC4(CC(Nc5ccccc5)C4)C3)ncnc2s1 (single isomer, unassigned) [Compound 150] | 370 |
| FC(F)(F)Cc1cc2c(N3CCC4(CC(Nc5cccnc5)C4)C3)ncnc2s1 (single isomer, unassigned) [Compound 152] | 288 |
| N#CC1(c2ccc(NC3CC4(CCN(c5ncnc6sc(CC(F)(F)F)cc56)C4)C3)cc2)CC1 (single isomer, unassigned) [Compound 171] | 265 |
| CS(=O)(=O)N1CCN(C(=O)c2ccc(NC3CC4(CCN(c5ncnc6sc(CC(F)(F)F)cc56)C4)C3)cc2)CC1 (single isomer, unassigned) [Compound 179] | 2900 |
| COC1CCN(C(=O)c2ccc(NC3CC4(CCN(c5ncnc6sc(CC(F)(F)F)cc56)C4)C3)cc2)CC1 (single isomer, unassigned) [Compound 184] | 3430 |
| O=C(c1ccc(NC2CC3(CCN(c4ncnc5sc(CC(F)(F)F)cc45)C3)C2)cc1)N1CCNCC1 (single isomer, unassigned) [Compound 188] | 200 |
| CNC(=O)c1ccc(NC2CC3(CCN(c4ncnc5sc(CC(F)(F)F)cc45)C3)C2)cc1F (single isomer, unassigned) [Compound 204] | 84.6 |
| N#CCc1ccc(NC2CC3(CCN(c4ncnc5sc(CC(F)(F)F)cc45)C3)C2)c(Cl)c1 (single isomer, unassigned) [Compound 209] | 65.3 |

| Compound | IC50 [nM] |
| --- | --- |
| N#CCc1ccc(NC2CC3(CCN(c4ncnc5sc(CC(F)(F)F)cc45)C3)C2)cc1Cl (single isomer, unassigned) [Compound 210] | 70.4 |
| O=S(=O)(c1ccc(NC2CC3(CCN(c4ncnc5sc(CC(F)(F)F)cc45)C3)C2)cc1)N1CCOCC1 (single isomer, unassigned) [Compound 220] | 118 |
| CNC(=O)c1ccc(NC2CC3(CCN(c4ncnc5sc(CC(F)(F)F)cc45)C3)C2)cc1C1CCN(C)CC1 (single isomer, unassigned) [Compound 231] | 208 |
| CN1CCC(c2cc(NC3CC4(CCN(c5ncnc6sc(CC(F)(F)F)cc56)C4)C3)ccc2C(=O)N2CCOCC2)CC1 (single isomer, unassigned) [Compound 233] | 108 |
| CNC(=O)c1c(F)cc(NC2CC3(CCN(c4ncnc5sc(CC(F)(F)F)cc45)C3)C2)cc1F (single isomer, unassigned) [Compound 244] | 516 |
| O=C(c1cnc(NC2CC3(CCN(c4ncnc5sc(CC(F)(F)F)cc45)C3)C2)nc1)N1CCOCC1 (single isomer, unassigned) [Compound 259] | > 10000 |
| Cc1nc(N2CCC3(CC(NCc4ccccc4)C3)C2)c2cc(CC(F)(F)F)sc2n1 (single isomer, unassigned) [Compound 261] | 529 |
| COc1nc(N2CCC3(CC(Nc4ccccc4)C3)C2)c2cc(CC(F)(F)F)sc2n1 (single isomer, unassigned) [Compound 266] | 1020 |
| CNc1nc(N2CCC3(CC(Nc4ccccc4)C3)C2)c2cc(CC(F)(F)F)sc2n1 (single isomer, unassigned) [Compound 268] | 943 |
| CC(C)(N[C@@H]1CCC2(C1)CN(c1ncnc3sc(CC(F)(F)F)cc13)C2)c1ccccc1 (single isomer, unassigned) [Compound 280] | 158 |
| CNS(=O)(=O)c1ccc(N[C@@H]2CCC3(C2)CN(c2ncnc4sc(CC(F)(F)F)cc24)C3)cc1 (single isomer, unassigned) [Compound 290] | 231 |
| O=C1Cc2ccc(N[C@H]3CCC4(C3)CN(c3ncnc5sc(CC(F)(F)F)cc35)C4)cc2N1 (single isomer, unassigned) [Compound 294] | 58.4 |
| O=c1[nH]c2ccc(N[C@@H]3CCC4(C3)CN(c3ncnc5sc(CC(F)(F)F)cc35)C4)cc2o1 (single isomer, unassigned) [Compound 296] | 146 |
| O=c1[nH]c2ccc(N[C@H]3CCC4(C3)CN(c3ncnc5sc(CC(F)(F)F)cc35)C4)cc2o1 (single isomer, unassigned) [Compound 297] | 131 |
| O=c1[nH]c2ccc(N[C@H]3CCC4(C3)CN(c3ncnc5sc(CC(F)(F)F)cc35)C4)cc2[nH]1 (single isomer, unassigned) [Compound 300] | 128 |
| FC(F)(F)Cc1cc2c(N3CC4(CC[C@@H](Nc5ccc(-c6cn[nH]c6)cc5)C4)C3)ncnc2s1 (single isomer, unassigned) [Compound 303] | 521 |
| FC(F)(F)Cc1cc2c(N3CCC4(CC(Nc5ccc6cc[nH]c6c5)C4)C3)ncnc2s1 (single isomer, unassigned) [Compound 312] | 136 |
| FC(F)(F)Cc1cc2c(N3CCC4(CC(Nc5ccc6cc[nH]c6c5)C4)C3)ncnc2s1 (single isomer, unassigned) [Compound 313] | 55.2 |
| O=c1[nH]c2ccc(NC3CC4(CCN(c5ncnc6sc(CC(F)(F)F)cc56)C4)C3)cc2o1 (single isomer, unassigned) [Compound 324] | 85.9 |
| FC(F)(F)Cc1cc2c(N3CCC4(CC(Nc5ccc(-c6cn[nH]c6)cc5)C4)C3)ncnc2s1 (single isomer, unassigned) [Compound 328] | 206 |
